Laboratory results published in US8207293B2, “Peptides derived from maurocalcine used as vectors for intracellular addressing of molecules of interest” (Commissariat a l'Energie Atomique, priority 2004, dated 2012).

Assays:
[1] = tested on: live cells; test: Flow cytometry analysis of cellular penetration at increasing extracellular KCl (membrane potential); type: cell-based; conditions: for mean fluorescence value: 100 nM complex, 1 hour
Description: The MCab-Strept-Cy^5 complexes were prepared in solutions containing various NaCl/KCl ratios (composition in mM: 145 to 5 NaCl, 5 to 145 KCl, 2.5 CaCl2, 1.2 MgCl2, 10 glucose, 10 HEPES, pH 7.4).
The cells were washed twice with the NaCl/KCl solution used to prepare the complexes, and then incubated with maurocalcine and the derived peptides, which are biotinylated and complexed with streptavidin-cyanin 3 (MCab-Strept-Cy^3 complexes), at the final concentration of 100 nM in the same NaCl/KCl solution, in the dark and at ambient temperature for 1 hour. After 2 washes in the same NaCl/KCl buffer, the cyanin 3 fluorescence was analyzed on live cells, using a flow cytometer (FACScalibur, BECTON DICKINSON). The data were recorded and analyzed using appropriate software (CellQuest, BD BIOSCIENCES). The live cells were sorted according to their size and their granulosity (forward/side scattering), over a total of 10 000 events.

[2] = tested on: CA1 hippocampal neurons, HEK293 cells, L6 cells; test: Cell penetration of biotinylated peptide/Strept-Cy3 complexes in various cell cultures, confocal microscopy of fixed cells; type: cell-based; conditions: 100 nM, 30 min, ambient temperature
Description: (§1) Soluble streptavidin-cyanin 3 and streptavidin-cyanin 5 (Strept-Cy^3 and Strept-Cy^5, AMERSHAM) were mixed with 4 molar equivalents of biotinylated maurocalcine (1 mM) or biotinylated maurocalcine-derived peptide, in phosphate buffer (PBS, in mM: 136 NaCl, 1.47 Na2HPO4, 2.6 KCl, 1 CaCl2, 0.5 MgCl2, pH 7.2), for 2 hours at 37° C. and in the dark.
The cells were incubated with maurocalcine and the derived peptides, biotinylated and complexed with streptavidin-cyanin 3 or with streptavidin-cyanin 5, at the final concentration of 100 nM in PBS, in the dark and at ambient temperature, for 30 minutes to 1 hour. […] The Alexa-488 and Cy3 or propidium iodide (PI) fluorescences were excited sequentially and then recorded. The Cy3 fluorescence was excited using a 543 nm helium-neon laser beam and the fluorescence emission was recorded between 554 nm and 625 nm. […]
The primary rat hippocampal neurons and the cells of the HEK293 line and the L6 line (before and after differentiation) are incubated for 30 min at ambient temperature, with 100 nM or 333 nM of maurocalcine-derived peptide, biotinylated and complexed with streptavidin-Cy3, or else 100 nM or 333 nM of MCab/Strept-Cy3, as a control. The cells are fixed and the fluorescence is observed by confocal microscopy.

[3] = tested on: HEK293 cells; test: Cell penetration and subcellular distribution of complexes in HEK293 cells, confocal microscopy; type: cell-based, human; conditions: for cellular distribution of complexes: 333 nM
Description: as §1
The human embryonic kidney cells (HEK 293 line, ATCC) are divided before confluence, by treatment with trypsin (1%), and are maintained in DMEM medium (INVITROGEN) containing 10% of inactivated fetal calf serum (INVITROGEN) and 1% of penicillin/streptomycin (INVITROGEN), in a CO2 incubator (5%). The culture medium is changed every 2 days.
The cells were incubated with maurocalcine and the derived peptides, biotinylated and complexed with streptavidin-cyanin 3 or with streptavidin-cyanin 5, […], in the dark and at ambient temperature, for 30 minutes to 1 hour. After 3 washes in PBS, the cells are fixed at ambient temperature, in a paraformaldehyde solution (4%), for 10 min, in the dark, washed in PBS and incubated for one hour with FITC-conjugated concanavalin (MOLECULAR PROBES, 5 μg/ml) in order to label the plasma membrane, and TO-PRO-3 iodide (MOLECULAR PROBES, 1 μM) in order to label the nucleus. In order to label the cytoskeleton, the cells were fixed and permeabilized with ice-cold methanol, for 10 min, washed twice in PBS and incubated with a mouse anti-alpha-tubulin antibody (1:1000, SIGMA), for 2 hours. After two washes in PBS, the cells were incubated for one hour with an anti-mouse IgG secondary antibody conjugated to Alexa 488 (1:1000, MOLECULAR PROBES). The cultures were then mounted in Vectashield mounting medium (VECTOR LABORATORIES). Preparations were observed by laser scanning confocal microscopy, using a Leica TCS-SP2 control system. The Alexa-488 and Cy3 or propidium iodide (PI) fluorescences were excited sequentially and then recorded. The Cy3 fluorescence was excited using a 543 nm helium-neon laser beam and the fluorescence emission was recorded between 554 nm and 625 nm. The images were introduced into Adobe Photoshop 7.0.

[4] = tested on: undifferentiated L6 cells; test: Penetration kinetics in live undifferentiated L6 cells, confocal microscopy; type: cell-based, rat
Description: The L6 rat myogenic cell line (clone C5, EACC) is cultured in DMEM medium supplemented with 15% fetal bovine serum (LIFE TECHNOLOGIES) and 1% penicillin-streptomycin (Invitrogen).
The live cells were incubated with maurocalcine and the derived peptides, biotinylated and complexed with streptavidin-cyanin 3, at the final concentration of 100 nM in PBS, at ambient temperature in freshly changed culture medium, on the platform of an upright microscope (Nikon Eclipse 600 FN, equipped with a water-immersion objective (×40); aperture 0.8) and a confocal head (Nikon PCM 2000), or else with a Leica TCS-SP2 microscope, equipped with an objective (×100), according to the “XYZt” mode.
The penetration kinetics of the maurocalcine and of the derived peptides, biotinylated in complex with streptavidin-Cy3, was initiated by injecting 100 nM of the complex into the culture medium. The Cy3 fluorescence was excited by means of a 543 nm wavelength of an […] laser. The light emission was filtered (595±35 nm filter). The images were recorded and analyzed using the EZ2000 software (Nikon). The quantitative analysis of the relative fluorescence was carried out on the overall signal of all the cells, using appropriate software (Leica).

## MCab/Strept-Cy3: biotinylated maurocalcine, complexed with cyanin-3-labeled streptavidin
[1]; 5 mM KCl
  mean fluorescence value: 145
[1]; 125 mM KCl
  mean fluorescence value: 40
[1]; 145 mM KCl
  mean fluorescence value: 17
[1]; fit y=y0+a×x
  decreasing slope a (linear regression of fluorescence vs KCl concentration): −0.72
  maximum fluorescence y0 (linear regression vs KCl concentration): 139.5
[2]
  Cy3 labeling of cells (transduction): strong uniform labeling of the plasma membrane and of the cytoplasm of all the cells
[3]; 100 nM, 1 h, 4° C.
  entry into cells at decreased temperature: still penetrate into the cells
[3]; 100 nM, 1 h, amiloride 3 mM
  effect of amiloride on entry of the complex: no effect on the entry of the complex into the cells
[3]; 100 nM, 1 h, nystatin 50 μM
  effect of nystatin on entry of the complex: no effect on the entry of the complex into the cells
[3]; 2 hours of incubation
  cellular distribution of complexes: mainly present in the cytoplasm
[3]; between 4 hours and 24 hours of incubation
  cellular distribution of complexes: mainly perinuclear and colocalizes with the nucleus
[4]; 100 nM
  time of fluorescence peak in the plasma membrane (ROI-1): 10 min
[4]; 100 nM in extracellular medium
  time at which labeling appears after addition: 3 min
